Among the data in the NIST ThermoML archive (doi:10.1016/j.jct.2010.04.003) are mass density values, retold here.

Structures are written as SMILES. Numbers after ± are expanded uncertainties.

The conditions of this data set: 101.33 kPa, Liquid, Buoyancy - hydrostatic balance with magnetic suspension - one sinker.

On to `CN(C)P(=O)(N(C)C)N(C)C` [tris(dimethylamino)phosphine oxide], for which the mass density is reported as 1028.54 ± 0.33 kg/m3 (288.15 K); 1024.33 ± 0.33 kg/m3 (293.15 K); 1020.03 ± 0.33 kg/m3 (298.15 K); 1015.86 ± 0.32 kg/m3 (303.15 K); 1011.61 ± 0.32 kg/m3 (308.15 K).
